In brackets after ≈: the same amount, converted by molar mass.
What was measured:
H1299 tumor bearing mice = assay: In vivo fluorescence imaging of Cy5.5 labeled peptides; conditions: tail vein injection, 1 to 6 hours after injection
Method: Both H1299 and SPCA1 xenograft mouse models were prepared by the animal experimental center of Shanghai Cancer Institute. They were used in the in vivo imaging experiments about 3˜4 weeks after tumor cell inoculation (tumor size about 5-7 mm diameter), and humanely sacrificed afterwards. The animal study protocols were approved by the Animal Study Committee of Shanghai Jiaotong University, School of Pharmacy.
At various time points afterwards, the mice were anesthetized and imaged with an Optix in vivo fluorescence imaging system (GE Healthcare). Excepted for the Cy5.5 dye only control, all the other groups contained at least 3 mice. The representative images from the same most representative mouse in each group were shown. The images had been processed using the fluorescence lifetime gating for Cy5.5 (0.8-1.1 ns) to remove most autofluorescent interferences.
Cy5.5 fluorescence distributions inside the mice were imaged at various time points after injection. In all groups including the free dye control, fluorescences were first seen all over the body, and then quickly afterwards in the kidney and bladder. […] But in LARLLT-Cy5.5 injected mice, between 1 to 6 hours after injection, fluorescence signals in the tumor tissue were much stronger, as compared to the surrounding tissues.

H1299 cells = assay: MTT cell killing assay, H1299; type: cell-based; conditions: Homo sapiens, NCI-H1299, H1299, 2 hours exposure, then 48 hours growth, read-out: calculated IC50
Method: (§1) H1299 and SPCA1 cells were plated at the density of 10^4 cells/well in 96-well plates and grown overnight. […] The cells were then washed with fresh medium, and let grown for another 48 hours. The cell viabilities after different treatments were determined using a MTT assay (26).

SPCA1 cells = assay: MTT cell killing assay, SPCA1; type: cell-based; conditions: Homo sapiens, SPCA1, 2 hours exposure, then 48 hours growth, read-out: calculated IC50
Method: as §1

H-460 cells = assay: FACS analysis of liposome binding by doxorubicin fluorescence; type: cell-based; conditions: 0.01 to 10 μg/ml doxorubicin, FIG. 8
Method: H-460 cells were grown in cell culture plate under sterile conditions and harvested by scraping. The liposome samples (empty Thermodox liposome, ThermoDox, D4-ThermoDox, D4*-ThermoDox where D4 ThermoDox comprises SEQ ID NO:1 and D4*ThermoDox comprises SEQ ID NO:2) and doxorubicin hydrochloride were added and incubated at 37° C. with H-460 cells for 4 hours. Two different liposomes comprising different amounts of the peptide of the invention (D4-ThermoDox) were tested. The two liposomes were designated D4-ThermoDox2+2, which comprised DPPC:MSPC: DSPE-MPEG2000:D4-DSPE-MPEG2000 in a 90:10:2:2 molar ratio and D4-ThermoDox4+4, which comprised DPPC:MSPC: DSPE-MPEG2000:D4-DSPE-MPEG2000 in a 90:10:4:4 molar ratio. The D4*-ThermoDox comprised DPPC:MSPC: DSPE-MPEG2000:D4*-DSPE-MPEG2000 in a 90:10:2:2 molar ratio. After incubation, the cells were washed 4 times with PBS, and counted by FACS using doxorubicin fluorescence (excitation at 488 nm, and emission at 575 nm).
The following groups were examined: a. Non-treatment control; b. ThermoDox at approx. 0.01-10 μg (doxorubicin)/mL; c. D4-ThermoDox2+2 at approx. 0.01-10 μg (doxorubicin)/mL; d. D4-ThermoDox4+4 at approx. 0.01-10 μg (doxorubicin)/mL; e. D4*-ThermoDox at approx. 0.01-10 μg (doxorubicin)/mL; and f. doxorubicin hydrochloride 0.01-10 μg. […]

[1] = target: epidermal growth factor receptor (EGFR) on EGFR high-expressing human lung cancer cells (H1299, SPCA1) (human, UniProt P00533 25-1210); assay: cell-based or functional assay

Q: Which “fluorescence signal in the tumor region” value (H1299 tumor bearing mice) does the source give for Cy5.5 here?
A: Its value is “the same as background”.

Q: How did the IC50 (H1299 cells) turn out when `COc1cccc2c1C(=O)c1c(O)c3c(c(O)c1C2=O)C[C@@](O)(C(=O)CO)C[C@@H]3O[C@H]1C[C@H](N)[C@H](O)[C@H](C)O1` [free doxorubicin, doxorubicin] was run?
A: Its IC50 is 5.7 µg/mL (≈ 10.5 µM).

Q: And the IC50 (SPCA1 cells)?
A: The IC50 was 2 µg/mL (≈ 3.68 µM).

Q: What about the “doxorubicin uptake (mean fluorescence intensity)” value (H-460 cells) of the same molecule?
A: Its value is “highest”.

B1: control peptide modified liposomes (scrambled peptide RTALLL conjugated to DSPE-PEG2000, inserted into preformed liposomes) (peptide)
peptide: RTALLL
modifications: peptide thiolated with SPDP, reduced with TCEP and coupled to the maleimide of DSPE-PEG2000-Mal; the lipid conjugate is inserted into liposomes
Q: With B1 as the molecule, how does the “IC50 of cell killing (MTT), doxorubicin liposomes, H1299 cells” value [1] read?
A: The value was 85 µg/mL.

Q: And the “IC50 of cell killing (MTT), doxorubicin liposomes, SPCA1 cells” value [1]?
A: The value was 15 µg/mL.
